Laboratory results: patent publication US20120122870A1, “Treatment Of Ischemia-Reperfusion Injury” (MUSC FOUNDATION FOR RESEARCH DEVELOPMENT, priority 2009, published 2012)

test system: endogenous SK activity in MDA-MB-231 cells; test: Cellular S1P production (endogenous SK activity) in MDA-MB-231 cells; assay type: cell-based; conditions: Homo sapiens, MDA-MB-231, MDA-MB-231 cells incubated with 20 μg/mL of compound; percentage of S1P production inhibited
Method: Human SK was incubated with 6 μg/mL of the indicated compounds, and then assayed for activity as described above. Values in the column labeled “Recombinant SK (% inhibition)” represent the percentage of SK activity that was inhibited. MDA-MB-231 cells were incubated with 20 μg/mL of the indicated compounds and then assayed for endogenous SK activity as indicated above. Values in the column labeled “Cellular S1P (% inhibition)” represent the percentage of S1P production that was inhibited. Additionally, MDA-MB-231 cells were treated with varying concentration of certain compounds and the amount of S1P produced by the cells was determined. Values in the column labeled “Cellular S1P IC50 (μM)” represent the concentration of compound required to inhibit the production of S1P by 50%. ND=not determined.

Going from `O=C(NCCc1ccc(O)c(O)c1)C12CC3CC(C1)CC(c1ccc(Cl)cc1)(C3)C2` [A44, 3-(4-Chloro-phenyl)-adamantane-1-carboxylic acid [2-(3,4-dihydroxy-phenyl)-ethyl]-amide] to `CC(C)NCC12CC3CC(C1)CC(c1ccc(Cl)cc1)(C3)C2` [A75, [3-(4-Chloro-phenyl)-adamantan-1-ylmethyl]-isopropyl-amine], the inhibition at 20 µg/mL falls from 88% to 41%.

Going from `O=C(Nc1ccc(Cl)c(C(F)(F)F)c1)Nc1nc(-c2ccc(Cl)cc2)cs1` [B1, 1-[4-(4-Chloro-phenyl)-thiazol-2-yl]-3-(4-chloro-3-trifluoromethyl-phenyl)-urea] to `O=C(Cc1ccc2c(c1)OCO2)Nc1nc(-c2ccc(Cl)cc2)cs1` [B22, 2-Benzo[1,3]dioxol-5-yl-N-[4-(4-chloro-phenyl)-thiazol-2-yl]-acetamide], the inhibition at 20 µg/mL rises from 32% to 33%.

Compared with `CCCCCCCCCCCCCC(=O)Nc1nc(-c2ccc(Cl)cc2)cs1` [B2, Tetradecanoic acid [4-(4-chloro-phenyl)-thiazol-2-yl]-amide], `CCCCCCCCC=CCCCCCCCC(=O)Nc1nc(-c2ccc(Cl)cc2)cs1` [B6, Octadec-9-enoic acid [4-(4-chloro-phenyl)-thiazol-2-yl]-amide] is lower in inhibition at 20 µg/mL: 43% for the first, 21% for the second.

First: C=CCCCCCCCCC(=O)Nc1nc(-c2ccc(Cl)cc2)cs1 [B4, Undec-10-enoic acid [4-(4-chloro-phenyl)-thiazol-2-yl]-amide]
Second: O=C(C=Cc1ccccc1)Nc1nc(-c2ccc(Cl)cc2)cs1 [B7, N-[4-(4-Chloro-phenyl)-thiazol-2-yl]-3-phenyl-acrylamide]
The inhibition at 20 µg/mL of the first is higher: 39% for the first, 21% for the second.

Compared with `O=C(C=Cc1ccc([N+](=O)[O-])cc1)Nc1nc(-c2ccc(Cl)cc2)cs1` [B5, N-[4-(4-Chloro-phenyl)-thiazol-2-yl]-3-(4-nitro-phenyl)-acrylamide], `CC(=O)Oc1ccc(C=CC(=O)Nc2nc(-c3ccc(Cl)cc3)cs2)cc1` [B12, Acetic acid 4-{2-[4-(4-chloro-phenyl)-thiazol-2-ylcarbamoyl]-vinyl}-phenyl ester] is lower in inhibition at 20 µg/mL: 25% for the first, 13% for the second.

Going from `CCCC(=O)Oc1ccc(C=CC(=O)Nc2nc(-c3ccc(Cl)cc3)cs2)cc1OC` [B8, Butyric acid 4-{2-[4-(4-chloro-phenyl)-thiazol-2-ylcarbamoyl]-vinyl}-2-methoxy-phenyl ester] to `CCCC(=O)Oc1cc(C=CC(=O)Nc2nc(-c3ccc(Cl)cc3)cs2)ccc1OC` [B18, Butyric acid 5-{2-[4-(4-chloro-phenyl)-thiazol-2-ylcarbamoyl]-vinyl}-2-methoxy-phenyl ester], the inhibition at 20 µg/mL falls from 80% to 65%.

First: COc1cc(C=CC(=O)Nc2nc(-c3cccc(Cl)c3)cs2)ccc1O [B9, N-[4-(3-Chloro-phenyl)-thiazol-2-yl]-3-(4-hydroxy-3-methoxy-phenyl)-acrylamide]
Second: COc1cc(C=CC(=O)Nc2nc(-c3ccc(Cl)cc3)cs2)ccc1OC(C)=O [B10, Acetic acid 4-{2-[4-(4-chloro-phenyl)-thiazol-2-ylcarbamoyl]-vinyl}-2-methoxy-phenyl ester]
The inhibition at 20 µg/mL of the first is lower: 32% for the first, 48% for the second.

Compared with `CCCC(=O)Oc1ccc(C=CC(=O)Nc2nc(-c3ccc(Cl)cc3)cs2)cc1OC(=O)CCC` [B11, Butyric acid 2-butyryloxy-5-{2-[4-(4-chloro-phenyl)-thiazol-2-ylcarbamoyl]-vinyl}-phenyl ester], `CCCC(=O)Oc1ccc(C(=O)Nc2nc(-c3ccc(Cl)cc3)cs2)cc1OC(=O)CCC` [B25, Butyric acid 2-butyryloxy-4-[4-(4-chloro-phenyl)-thiazol-2-ylcarbamoyl]-phenyl ester] is higher in inhibition at 20 µg/mL: 55% for the first, 79% for the second.

First: CCCC(=O)Oc1ccccc1C=CC(=O)Nc1nc(-c2ccc(Cl)cc2)cs1 [B13, Butyric acid 2-{2-[4-(4-chloro-phenyl)-thiazol-2-ylcarbamoyl]-vinyl}-phenyl ester]
Second: CCCC(=O)Oc1cccc(C=CC(=O)Nc2nc(-c3ccc(Cl)cc3)cs2)c1 [B14, Butyric acid 3-{2-[4-(4-chloro-phenyl)-thiazol-2-ylcarbamoyl]-vinyl}-phenyl ester]
The inhibition at 20 µg/mL of the first is lower: 0% for the first, 39% for the second.

Compared with `CCCC(=O)Oc1ccc(C=CC(=O)Nc2nc(-c3ccc(Cl)cc3)cs2)cc1` [B15, Butyric acid 4-{2-[4-(4-chloro-phenyl)-thiazol-2-ylcarbamoyl]-vinyl}-phenyl ester], `CCCC(=O)Oc1ccc(C=CC(=O)Nc2nc(-c3ccc(C)cc3)cs2)cc1OC` [B19, Butyric acid 2-methoxy-4-[2-(4-p-tolyl-thiazol-2-ylcarbamoyl)-vinyl]-phenyl ester] is higher in inhibition at 20 µg/mL: 23% for the first, 53% for the second.

First: CCCC(=O)Oc1ccc(CC(=O)Nc2nc(-c3ccc(Cl)cc3)cs2)cc1OC [B16, Butyric acid 4-{[4-(4-chloro-phenyl)-thiazol-2-ylcarbamoyl]-methyl}-2-methoxy-phenyl ester]
Second: CCCC(=O)Oc1ccc(C(=O)Nc2nc(-c3ccc(Cl)cc3)cs2)cc1OC [B24, Butyric acid 4-[4-(4-chloro-phenyl)-thiazol-2-ylcarbamoyl]-2-methoxy-phenyl ester]
The inhibition at 20 µg/mL of the first is higher: 83% for the first, 69% for the second.

First: CCCC(=O)Oc1ccc(CC(=O)Nc2nc(-c3ccc(Cl)cc3)cs2)cc1OC(=O)CCC [B17, Butyric acid 2-butyryloxy-5-{[4-(4-chloro-phenyl)-thiazol-2-ylcarbamoyl]-methyl}-phenyl ester]
Second: CCCC(=O)Oc1ccc(CCC(=O)Nc2nc(-c3ccc(Cl)cc3)cs2)cc1OC(=O)CCC [B26, Butyric acid 2-butyryloxy-4-{2-[4-(4-chloro-phenyl)-thiazol-2-ylcarbamoyl]-ethyl}-phenyl ester]
The inhibition at 20 µg/mL of the first is lower: 57% for the first, 79% for the second.

Going from `CCCC(=O)Oc1ccc(C=CC(=O)Nc2nc(-c3ccc(Br)cc3)cs2)cc1OC` [B20, Butyric acid 4-{2-[4-(4-bromo-phenyl)-thiazol-2-ylcarbamoyl]-vinyl}-2-methoxy-phenyl ester] to `CCCC(=O)Oc1ccc(C=CC(=O)Nc2nc(-c3ccc(F)cc3)cs2)cc1OC` [B28, Butyric acid 4-{2-[4-(4-fluoro-phenyl)-thiazol-2-ylcarbamoyl]-vinyl}-2-methoxy-phenyl ester], the inhibition at 20 µg/mL rises from 62% to 65%.

Going from `O=C(C=Cc1ccc2c(c1)OCO2)Nc1nc(-c2ccc(Cl)cc2)cs1` [B21, 3-Benzo[1,3]dioxol-5-yl-N-[4-(4-chloro-phenyl)-thiazol-2-yl]-acrylamide] to `COc1ccc(CCC(=O)Nc2nc(-c3ccc(Cl)cc3)cs2)cc1OC` [B23, N-[4-(4-Chloro-phenyl)-thiazol-2-yl]-3-(3,4-dimethoxy-phenyl)-propionamide], the inhibition at 20 µg/mL falls from 41% to 14%.

First: CCCC(=O)Oc1cc(C(=O)Nc2nc(-c3ccc(Cl)cc3)cs2)cc(OC(=O)CCC)c1OC(=O)CCC [B27, Butyric acid 2,6-bis-butyryloxy-4-[4-(4-chloro-phenyl)-thiazol-2-ylcarbamoyl]-phenyl ester]
Second: CN(C)c1ccc(CNC(=O)c2nc(-c3ccc(Cl)cc3)cs2)cc1 [B35, 4-(4-Chloro-phenyl)-thiazole-2-carboxylic acid 4-dimethylamino-benzylamide]
The inhibition at 20 µg/mL of the first is higher: 68% for the first, 17% for the second.

For `O=C(NCc1ccncc1)c1nc(-c2ccc(Cl)cc2)cs1` [B34, 4-(4-Chloro-phenyl)thiazole-2-carboxylic acid (pyridin-4-ylmethyl)amide], the inhibition at 20 µg/mL was 28%.

same assay, conditions: Homo sapiens; MDA-MB-231 cells, varying concentrations; concentration inhibiting S1P production by 50%

`O=C(NCCc1ccc(O)c(O)c1)C12CC3CC(C1)CC(c1ccc(Cl)cc1)(C3)C2` [A44, 3-(4-Chloro-phenyl)-adamantane-1-carboxylic acid [2-(3,4-dihydroxy-phenyl)-ethyl]-amide] and `CCCC(=O)Oc1ccc(C=CC(=O)Nc2nc(-c3ccc(Cl)cc3)cs2)cc1OC` [B8, Butyric acid 4-{2-[4-(4-chloro-phenyl)-thiazol-2-ylcarbamoyl]-vinyl}-2-methoxy-phenyl ester] are within 1.5-fold of each other in IC50: 35 µM for the first, 34 µM for the second.
